Patent publication EP0162545A2, “Enhanced bioconversion processes” (BETZ EUROPE, INC., priority 1984, dated 1985)

Columns and labels:
Klebsiella [1] = type: cell-based
Procedure: At 0.05 µg/mL level, TOC removal was equivalent to the untreated control. When BNS concentrations of 0.5 µg/mL were used, TOC removal ceased and in the second series of experiments, TOC levels increased sharply at 0.5 - 2 µg/mL concentrations of BNS. Similar results were obtained when BNS was used to treat bacteria growing in the glucose salts medium. No increases in TOC removal were seen. The TOC concentration increased rapidly at BNS concentration of 0.5 - 2 ppm only to fall back to control levels at 5 ppm. The cells then added TOC to the medium again from […] concentrations of BNS. This middle range spike in TOC (0.5-2 µg/mL BNS) was thought to be caused by excessive extra cellular polymer sloughing and limited cellular death as evidenced by the viability counts in the. 0.5 - 2 µg/mL BNS range. […] The dissolved oxygen concentration was decreased in the presence of BNS at concentrations of 0.05 - 1 µg/mL but at no concentration of BNS was the removal greater than the control level.
This set of experiments tends to make the BNS range of useful concentrations even lower than noted before. […] DO removal was seriously affected by concentrations of BNS that were ≥ 0.5 µg/mL. In short, it would appear that BNS would have to be used at concentrations ≤ 0.5 µg/mL in order to prevent the upset of a waste treatment facility by killing off the microbial populations. […]

[2] = BNS breakdown kinetics in deionized water, spectrophotometric at 320 nm; type: physicochemical
Procedure: BNS stock was composed of 10% BNS, 5% Triton X-114 and 85% carbitol acetate. BNS was diluted in deionized water to the appropriate 10X concentration desired. Breakdown kinetics were measured in a deionized H20/BNS system by spectrophotometric measurement at 320 nm and a BNS half life was determined to be 7 hours. Continuous and separate pumping of uncoupler was by a Masterflex 7552-10 peristalic pump (Cole Parmer, Chicago, IL) through silicon tubing lines into the bioreactor. Feed flow was split 90% organic feed, 10% BNS feed for total flow. New uncoupler feed was made up daily from the previously mentioned stock, since there was only 10% of the original BNS concentration left before the new daily solution of BNS feed was begun. BNS dose of 1, 2 and 5 ppm was based on the total bulk feed. Reservoir solutions were mixed constantly on a Fisher versamix magnetic stir plate at a speed of 0.4/1.0 to prevent settling out of chemical.

Klebsiella [3] = experiment: CO2 evolution from 14C-D-glucose, second series; type: cell-based; set-up: Cumulative Growth Index Reading (CO2 Blowoff) 0 HR: scale not given here
Procedure: Experiments to look at the above conclusions in depth were performed. In these experiments, cultures of Klebsiella were challenged with various concentrations of BNS and the effects on C02 evolution from glucose, viability, TOC (Total Organic Carbon), TIC (Total Inorganic Carbon) production, removal, and DO (Dissolved Oxygen) removal were determined. Concentrations of BNS from 0.05 to 100 µg/mL were used. […] CO2 evolution decreased after 5 gg/mL. […] The viability dropped off after that with 99% inhibition at concentrations somewhere between 10 - 20 µg/mL. Organic carbon removal gave the most puzzling pattern. […] CO2 was produced, however, as reflected by the C02 blowoff experiments and the TIC data. The organic carbon being oxidized (removed) must have been cancelled out by an organic carbon addition caused by limited bacterial lysis. This phenomenon was investigated again. […] It appeared that 5 ppm BNS would be the maximum concentration that could be used for the desired effect, with the majority of favorable results occurring in the 0.05 - 2 ppm range.
The experiments coordinating the measurements of C02 evolution, TOC reduction, viable count, and dissolved oxygen (DO) reduction were performed as follows: C02 evolution by Klebsiella was measured as described previously using a narrowed set of BNS concentrations. At the same time, Klebsiella cells grown overnight in nutrient broth were standardized into an inoculum of 250 Klett units. These cells were used to inoculate 19 mL quantities of fresh nutrient broth (1 mL inoculum) in baffled shake flasks. These shake flasks were placed into water bath shakers at 37°C and allowed to shake for 5 hours. Concentrations of BNS equivalent to the C02 blowoff experiment were added to the flasks at the beginning of the experiment. Controls containing no BNS were included for comparisons. Total organic carbon measurements were taken after 5 hours incubation. Viable counts were done at 1 hour, 3 hours, and 5 hours. A parallel experiment was performed using the same setup except that after BNS additions, the flasks were shaken for 30 minutes and then held stationary. DO measurements were taken at 5 hours incubation with the use of a YSI Model 54A oxygen meter.

For O=[N+]([O-])C(Br)=Cc1ccccc1 [BNS, beta-bromo-beta-nitrostyrene], which “concentrations seriously affecting DO removal” value (Klebsiella [1]) is on record?
The value was no less than 500 ng/mL.

And the toxic concentration (Klebsiella [1])?
The toxic concentration was 0.5 to 1 µg/mL.

And the half-life ([2]; deionized water, deionized H20/BNS system, 320 nm)?
Its half-life is 7 h.

What about the “original BNS concentration left” value ([2]; diluted feed in deionized water, before the new daily solution) of the same compound?
The value was 10%.

And the “Cumulative Growth Index Reading (CO2 Blowoff) 0 HR” value (Klebsiella [3]; BNS 0.05 μg/mL)?
Its value is 2.

What about the “Cumulative Growth Index Reading (CO2 Blowoff) 0.5 HR” value (Klebsiella [3]; BNS 0.05 μg/mL) of the same compound?
Its value is 762.

And the “Cumulative Growth Index Reading (CO2 Blowoff) 1 HR” value (Klebsiella [3]; BNS 0.05 μg/mL)?
The value was 1,082.

And the “Cumulative Growth Index Reading (CO2 Blowoff) 3 HR” value (Klebsiella [3]; BNS 0.05 μg/mL)?
Its value is 1,642.

And the “Cumulative Growth Index Reading (CO2 Blowoff) 5 HR” value (Klebsiella [3]; BNS 0.05 μg/mL)?
Its value is 2,012.

And the “Cumulative Growth Index Reading (CO2 Blowoff) 0 HR” value (Klebsiella [3]; BNS 0.1 μg/mL)?
Its value is 2.

What about the “Cumulative Growth Index Reading (CO2 Blowoff) 0.5 HR” value (Klebsiella [3]; BNS 0.1 μg/mL) of the same compound?
The value was 877.

What about the “Cumulative Growth Index Reading (CO2 Blowoff) 1 HR” value (Klebsiella [3]; BNS 0.1 μg/mL) of the same compound?
Its value is 1,197.

What about the “Cumulative Growth Index Reading (CO2 Blowoff) 3 HR” value (Klebsiella [3]; BNS 0.1 μg/mL) of the same compound?
The value was 1,797.

What about the “Cumulative Growth Index Reading (CO2 Blowoff) 5 HR” value (Klebsiella [3]; BNS 0.1 μg/mL) of the same compound?
The value was 2,197.

What about the “Cumulative Growth Index Reading (CO2 Blowoff) 0 HR” value (Klebsiella [3]; BNS 0.5 μg/mL) of the same compound?
Its value is 1.

What about the “Cumulative Growth Index Reading (CO2 Blowoff) 0.5 HR” value (Klebsiella [3]; BNS 0.5 μg/mL) of the same compound?
The value was 801.

And the “Cumulative Growth Index Reading (CO2 Blowoff) 1 HR” value (Klebsiella [3]; BNS 0.5 μg/mL)?
Its value is 1,121.

What about the “Cumulative Growth Index Reading (CO2 Blowoff) 3 HR” value (Klebsiella [3]; BNS 0.5 μg/mL) of the same compound?
The value was 1,761.

What about the “Cumulative Growth Index Reading (CO2 Blowoff) 5 HR” value (Klebsiella [3]; BNS 0.5 μg/mL) of the same compound?
The value was 2,201.

And the “Cumulative Growth Index Reading (CO2 Blowoff) 0 HR” value (Klebsiella [3]; BNS 1.0 μg/mL)?
Its value is 1.

What about the “Cumulative Growth Index Reading (CO2 Blowoff) 0.5 HR” value (Klebsiella [3]; BNS 1.0 μg/mL) of the same compound?
The value was 761.

What about the “Cumulative Growth Index Reading (CO2 Blowoff) 1 HR” value (Klebsiella [3]; BNS 1.0 μg/mL) of the same compound?
The value was 1,091.

What about the “Cumulative Growth Index Reading (CO2 Blowoff) 3 HR” value (Klebsiella [3]; BNS 1.0 μg/mL) of the same compound?
The value was 1,741.

And the “Cumulative Growth Index Reading (CO2 Blowoff) 5 HR” value (Klebsiella [3]; BNS 1.0 μg/mL)?
The value was 2,201.

And the “Cumulative Growth Index Reading (CO2 Blowoff) 0 HR” value (Klebsiella [3]; BNS 2 μg/mL)?
Its value is 2.

And the “Cumulative Growth Index Reading (CO2 Blowoff) 0.5 HR” value (Klebsiella [3]; BNS 2 μg/mL)?
Its value is 752.

What about the “Cumulative Growth Index Reading (CO2 Blowoff) 1 HR” value (Klebsiella [3]; BNS 2 μg/mL) of the same compound?
The value was 1,072.

And the “Cumulative Growth Index Reading (CO2 Blowoff) 3 HR” value (Klebsiella [3]; BNS 2 μg/mL)?
The value was 1,732.

What about the “Cumulative Growth Index Reading (CO2 Blowoff) 5 HR” value (Klebsiella [3]; BNS 2 μg/mL) of the same compound?
The value was 2,212.

And the “Cumulative Growth Index Reading (CO2 Blowoff) 0 HR” value (Klebsiella [3]; BNS 5 μg/mL)?
Its value is 0.

What about the “Cumulative Growth Index Reading (CO2 Blowoff) 0.5 HR” value (Klebsiella [3]; BNS 5 μg/mL) of the same compound?
The value was 750.

What about the “Cumulative Growth Index Reading (CO2 Blowoff) 1 HR” value (Klebsiella [3]; BNS 5 μg/mL) of the same compound?
The value was 1,032.

And the “Cumulative Growth Index Reading (CO2 Blowoff) 3 HR” value (Klebsiella [3]; BNS 5 μg/mL)?
Its value is 1,570.

And the “Cumulative Growth Index Reading (CO2 Blowoff) 5 HR” value (Klebsiella [3]; BNS 5 μg/mL)?
The value was 1,980.

What about the “Cumulative Growth Index Reading (CO2 Blowoff) 0 HR” value (Klebsiella [3]; BNS 10 μg/mL) of the same compound?
Its value is 2.

And the “Cumulative Growth Index Reading (CO2 Blowoff) 0.5 HR” value (Klebsiella [3]; BNS 10 μg/mL)?
The value was 682.

What about the “Cumulative Growth Index Reading (CO2 Blowoff) 1 HR” value (Klebsiella [3]; BNS 10 μg/mL) of the same compound?
The value was 952.

And the “Cumulative Growth Index Reading (CO2 Blowoff) 3 HR” value (Klebsiella [3]; BNS 10 μg/mL)?
The value was 1,392.

And the “Cumulative Growth Index Reading (CO2 Blowoff) 5 HR” value (Klebsiella [3]; BNS 10 μg/mL)?
Its value is 1,662.

What about the “Cumulative Growth Index Reading (CO2 Blowoff) 0 HR” value (Klebsiella [3]; BNS 20 μg/mL) of the same compound?
Its value is 1.

What about the “Cumulative Growth Index Reading (CO2 Blowoff) 0.5 HR” value (Klebsiella [3]; BNS 20 μg/mL) of the same compound?
Its value is 451.

And the “Cumulative Growth Index Reading (CO2 Blowoff) 1 HR” value (Klebsiella [3]; BNS 20 μg/mL)?
The value was 616.

What about the “Cumulative Growth Index Reading (CO2 Blowoff) 3 HR” value (Klebsiella [3]; BNS 20 μg/mL) of the same compound?
The value was 916.

And the “Cumulative Growth Index Reading (CO2 Blowoff) 5 HR” value (Klebsiella [3]; BNS 20 μg/mL)?
Its value is 1,101.

What about the “Cumulative Growth Index Reading (CO2 Blowoff) 0 HR” value (Klebsiella [3]; BNS 50 μg/mL) of the same compound?
The value was 1.

What about the “Cumulative Growth Index Reading (CO2 Blowoff) 0.5 HR” value (Klebsiella [3]; BNS 50 μg/mL) of the same compound?
Its value is 271.

And the “Cumulative Growth Index Reading (CO2 Blowoff) 1 HR” value (Klebsiella [3]; BNS 50 μg/mL)?
The value was 381.

And the “Cumulative Growth Index Reading (CO2 Blowoff) 3 HR” value (Klebsiella [3]; BNS 50 μg/mL)?
Its value is 651.

And the “Cumulative Growth Index Reading (CO2 Blowoff) 5 HR” value (Klebsiella [3]; BNS 50 μg/mL)?
The value was 876.

What about the “Cumulative Growth Index Reading (CO2 Blowoff) 0 HR” value (Klebsiella [3]; BNS 100 μg/mL) of the same compound?
The value was 2.

And the “Cumulative Growth Index Reading (CO2 Blowoff) 0.5 HR” value (Klebsiella [3]; BNS 100 μg/mL)?
The value was 97.

What about the “Cumulative Growth Index Reading (CO2 Blowoff) 1 HR” value (Klebsiella [3]; BNS 100 μg/mL) of the same compound?
Its value is 202.

And the “Cumulative Growth Index Reading (CO2 Blowoff) 3 HR” value (Klebsiella [3]; BNS 100 μg/mL)?
Its value is 287.

And the “Cumulative Growth Index Reading (CO2 Blowoff) 5 HR” value (Klebsiella [3]; BNS 100 μg/mL)?
Its value is 365.
